The values below come from patent US20160122320A1, “USEFUL COMBINATIONS OF MONOBACTAM ANTIBIOTICS WITH BETA-LACTAMASE INHIBITORS” (Basilea Pharmaceutica AG, priority 2005, published 2016).

Holding throughout (assay): MIC, NCCLS broth microdilution
Holding throughout (assay type): cell-based

Assay [1] relates to Pseudomonas aeruginosa MK1184. The note with it: for MIC of antibiotic at fixed inhibitor concentration (4 mg/L): MIC of antibiotic compound 1 with the labelled bridged monobactam of formula II and clavulanate, 4 mg/L each.
Another assay concerns Enterobacter cloacae P99. The note with it: for MIC of antibiotic at fixed inhibitor concentration (4 mg/L): MIC of antibiotic compound 1 with the labelled bridged monobactam of formula II and clavulanate, 4 mg/L each.
For the next assay, the system named is Acinetobacter sp. J2. As to conditions: for MIC of antibiotic at fixed inhibitor concentration (4 mg/L): MIC of antibiotic compound 1 with the labelled bridged monobactam of formula II and clavulanate, 4 mg/L each; for MIC of antibiotic: antibiotic alone, no inhibitor.
The test system of assay [2] is Klebsiella pneumoniae CF104. The note with it: for MIC of antibiotic at fixed inhibitor concentration (4 mg/L): MIC of antibiotic compound 1 with the labelled bridged monobactam of formula II and clavulanate, 4 mg/L each.
The test system of a further assay is Serratia marcescens S6. The note with it: for MIC of antibiotic at fixed inhibitor concentration (4 mg/L): MIC of antibiotic compound 1 with the labelled bridged monobactam of formula II and clavulanate, 4 mg/L each.
Assay [3] has as its system Stenotrophomonas malthophilia 1AC736. As to conditions: for MIC of antibiotic at fixed inhibitor concentration (4 mg/L): MIC of antibiotic compound 1 with the labelled bridged monobactam of formula II and clavulanate, 4 mg/L each; for MIC of antibiotic: antibiotic alone, no inhibitor.
Assay [4] concerns Pseudomonas aeruginosa 1973E. As to conditions: for MIC of antibiotic at fixed inhibitor concentration (4 mg/L): MIC of antibiotic compound 1 with the labelled bridged monobactam of formula II and clavulanate, 4 mg/L each. The method, boiled down:
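Broth microdilution following NCCLS M7-A5, with final DMSO ≤1%. Plates were incubated overnight at 30° C. or 37° C. and growth was read by eye; MIC is the lowest concentration giving complete inhibition of visible growth. In combination tests the formula I compound was serially diluted while partner compounds were held at 4 μg/mL each.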

Setting [5] is: Stenotrophomonas malthophilia 1AC736.

SMILES strings stand for the structures. Values joined by “and” are separate entries in the source; they are usually repeats but may differ in a detail not shown here. Identical values can stand only once. Counter-ions that a name gives are not always drawn.

With `NC(=O)c1cnccc1C(=O)NCC(=O)N1CC[C@@H]2[C@H]1C(=O)N2S(=O)(=O)O` [Compound 402, (1S,5R)-2-{2-[(3-carbamoylpyridyl-4)carbonylamino]acetyl}-7-oxo-2,6-diazabicyclo[3.2.0]heptane-6-sulfonic acid], the “MIC of antibiotic at fixed inhibitor concentration (4 mg/L)” value in assay [1] was 32 µg/mL; in the assay on Enterobacter cloacae P99, 32 µg/mL; in the assay on Acinetobacter sp. J2 (Acinetobacter sp. J2), 8 µg/mL; in assay [2], <0.06 µg/mL; in the assay with Serratia marcescens S6 it was 0.25 µg/mL; in assay [3] (setting [5]), <0.06 µg/mL. Moreover, the “MIC of antibiotic at fixed inhibitor concentration (4 mg/L)” value in assay [4] came to 4 µg/mL.

For the compound `NC(C(=O)N1CC[C@@H]2[C@H]1C(=O)N2S(=O)(=O)O)c1ccc(O)c(O)c1` (stereo partly drawn) [Compound 403], the “MIC of antibiotic at fixed inhibitor concentration (4 mg/L)” value was >32 µg/mL in assay [1]; 32 µg/mL in the assay with Enterobacter cloacae P99; 8 µg/mL in the assay on Acinetobacter sp. J2 (Acinetobacter sp. J2); 4 µg/mL in assay [2]; 0.5 µg/mL in the assay with Serratia marcescens S6; 0.125 µg/mL in assay [3] (setting [5]). In assay [4], the “MIC of antibiotic at fixed inhibitor concentration (4 mg/L)” value came out at 2 µg/mL.

Regarding `C[N+]1(CC(=O)N2CC[C@@H]3[C@H]2C(=O)N3S(=O)(=O)[O-])CCN(C(=O)n2ccnc2)CC1` [Compound 407, (1S,5R)-2-{2-[4-(imidazolylcarbonyl)-1-methylpiperazinium]acetyl}-7-oxo-2,6-diazabicyclo[3.2.0]heptane-6-sulfonate, inner salt], the “MIC of antibiotic at fixed inhibitor concentration (4 mg/L)” value in assay [1] was >32 µg/mL; in the assay with Enterobacter cloacae P99, 32 µg/mL; in the assay on Acinetobacter sp. J2 (Acinetobacter sp. J2), >32 µg/mL; in assay [2], 1 µg/mL; with Serratia marcescens S6, 0.5 µg/mL; in assay [3] (setting [5]), 0.125 µg/mL. Besides, the “MIC of antibiotic at fixed inhibitor concentration (4 mg/L)” value in assay [4] was found to be 8 µg/mL.

As to `C[C@@H](O)[C@H]1C(=O)N2C(C(=O)O)=C(S[C@@H]3CN[C@H](C(=O)N(C)C)C3)[C@H](C)[C@H]12` [Meropenem, meropenem, reference compound], the MIC of antibiotic in assay [1] (antibiotic alone, no inhibitor) is 2 µg/mL; in the assay on Enterobacter cloacae P99 (antibiotic alone, no inhibitor), 0.13 µg/mL and 0.125 µg/mL; in the assay with Acinetobacter sp. J2 (Acinetobacter baumannii J2), 2 µg/mL; in the assay with Acinetobacter sp. J2 (Acinetobacter sp. J2), 2 µg/mL; in assay [2] (antibiotic alone, no inhibitor) it was <0.06 µg/mL; with Serratia marcescens S6 (antibiotic alone, no inhibitor), 16 µg/mL. Further, the MIC of antibiotic turned out to be 32 µg/mL in assay [3] (setting [5]); 32 µg/mL in assay [3] (Stenotrophomonas maltophilia 1AC736); 1 µg/mL in assay [4] (antibiotic alone, no inhibitor).
